Source: PubChem BioAssay AID2060501 (Molecular Pharmacology Branch, DTP, NCI, 2025)

System: 282377-053-R-J1-PDC complex spheroids, viability
Test: Anticancer human tumor 282377-053-R-J1-PDC patient-derived colon adenocarcinoma cell line growth inhibition [GQUAD]
Settings: for IC50: curve of first compound; for viability, T/C: stronger effect = lower value; active = viability on the fitted dose curve at most 10% of control; inactive = the rest
Method in brief: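 Tumor cells were grown as complex spheroids with HUVEC endothelial cells and mesenchymal stem cells as stroma. G-quadruplex stabilizers were combined with targeted agents over half-log dilutions from near the clinical Cmax, or from 10 microM.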

[1] = second compound 0.0316 µM, first compound 0.0316 µM
[2] = second compound 0.0316 µM, first compound 0.1 µM
[3] = second compound 0.0316 µM, first compound 0.316 µM
[4] = second compound 0.0316 µM, first compound 1 µM
[5] = second compound 0.0316 µM, first compound 3.16 µM
[6] = second compound 0.0316 µM, first compound 10 µM
[7] = second compound 0.1 µM, first compound 0.0316 µM
[8] = second compound 0.1 µM, first compound 0.1 µM
[9] = second compound 0.1 µM, first compound 0.316 µM
[10] = second compound 0.1 µM, first compound 1 µM
[11] = second compound 0.1 µM, first compound 3.16 µM
[12] = second compound 0.1 µM, first compound 10 µM
[13] = second compound 0.316 µM, first compound 0.0316 µM
[14] = second compound 0.316 µM, first compound 0.1 µM
[15] = second compound 0.316 µM, first compound 0.316 µM
[16] = second compound 0.316 µM, first compound 1 µM
[17] = second compound 0.316 µM, first compound 3.16 µM
[18] = second compound 0.316 µM, first compound 10 µM
[19] = second compound 1 µM, first compound 0.0316 µM
[20] = second compound 1 µM, first compound 0.1 µM
[21] = second compound 1 µM, first compound 0.316 µM
[22] = second compound 1 µM, first compound 1 µM
[23] = second compound 1 µM, first compound 3.16 µM
[24] = second compound 1 µM, first compound 10 µM
[25] = second compound 3.16 µM, first compound 0.0316 µM
[26] = second compound 3.16 µM, first compound 0.1 µM
[27] = second compound 3.16 µM, first compound 0.316 µM
[28] = second compound 3.16 µM, first compound 1 µM
[29] = second compound 3.16 µM, first compound 3.16 µM
[30] = second compound 3.16 µM, first compound 10 µM
[31] = second compound 10 µM, first compound 0.0316 µM
[32] = second compound 10 µM, first compound 0.1 µM
[33] = second compound 10 µM, first compound 0.316 µM
[34] = second compound 10 µM, first compound 1 µM
[35] = second compound 10 µM, first compound 3.16 µM
[36] = second compound 10 µM, first compound 10 µM
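Also: spheroids exposed to compounds for 7 days before readout.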
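For viability, T/C in this document: percent of vehicle DMSO control viability with 100% = untreated-like growth.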

C=CCn1c(=O)c2cnc(Nc3ccc(N4CCN(C)CC4)cc3)nc2n1-c1cccc(C(C)(C)O)n1 + Cc1[nH]c2ccc(F)cc2c1-c1nc2c3cccnc3c3ncccc3c2[nH]1
3.54 µM: IC50 (second compound 0.1 µM)
1.95 µM: IC50 (second compound 1 µM)
inactive: viability, T/C [1] 101% | viability, T/C [2] 61.7% | viability, T/C [3] 95% | viability, T/C [4] 73.2% | viability, T/C [5] 63.7% | viability, T/C [6] 15.3% | viability, T/C [7] 80.2% | viability, T/C [8] 65.2% | viability, T/C [9] 79.8% | viability, T/C [10] 62.2% | viability, T/C [11] 56.5% | viability, T/C [12] 12.7% | viability, T/C [13] 91.6% | viability, T/C [14] 70.5% | viability, T/C [15] 77.7% | viability, T/C [16] 70% | viability, T/C [17] 51.4% | viability, T/C [18] 12.8% | viability, T/C [19] 84.5% | viability, T/C [20] 71% | viability, T/C [21] 72.6% | viability, T/C [22] 59.5% | viability, T/C [23] 44.3% | viability, T/C [24] 11% | viability, T/C [25] 50.3% | viability, T/C [26] 49.1% | viability, T/C [27] 24% | viability, T/C [28] 16.9% | viability, T/C [31] 20.7% | viability, T/C [32] 41.4% | viability, T/C [33] 16.9% | viability, T/C [34] 11.4%
3.23 µM: IC50 (second compound 0.316 µM)
active: viability, T/C [29] 12.7% | viability, T/C [30] 2.18% | viability, T/C [35] 7.59% | viability, T/C [36] 1.56%
< 0.0316 µM: IC50 (second compound 10 µM)
4.25 µM: IC50 (second compound 0.0316 µM)
0.0447 µM: IC50 (second compound 3.16 µM)

COc1ncnc(C2CC2)c1-c1ncc2cnn(Cc3ccc(-c4nc(C(F)(F)F)cn4C(C)C)cc3)c2n1 + Cc1[nH]c2ccc(F)cc2c1-c1nc2c3cccnc3c3ncccc3c2[nH]1
active: viability, T/C [6] 5.07% | viability, T/C [12] 7.94% | viability, T/C [24] 6.2% | viability, T/C [30] 6.71% | viability, T/C [36] 5.55%
5.46 µM: IC50 (second compound 1 µM)
3.36 µM: IC50 (second compound 10 µM)
inactive: viability, T/C [1] 97.6% | viability, T/C [2] 103% | viability, T/C [3] 91.9% | viability, T/C [4] 99.4% | viability, T/C [5] 97.1% | viability, T/C [7] 88.5% | viability, T/C [8] 107% | viability, T/C [9] 114% | viability, T/C [10] 110% | viability, T/C [11] 101% | viability, T/C [13] 103% | viability, T/C [14] 88.3% | viability, T/C [15] 111% | viability, T/C [16] 117% | viability, T/C [17] 96.3% | viability, T/C [18] 10.5% | viability, T/C [19] 97.1% | viability, T/C [20] 97.2% | viability, T/C [21] 113% | viability, T/C [22] 115% | viability, T/C [23] 89.5% | viability, T/C [25] 85.5% | viability, T/C [26] 79.5% | viability, T/C [27] 93.2% | viability, T/C [28] 82.6% | viability, T/C [29] 63.2% | viability, T/C [31] 48.1% | viability, T/C [32] 30.1% | viability, T/C [33] 76.9% | viability, T/C [34] 54.2% | viability, T/C [35] 53.4%
5.93 µM: IC50 (second compound 0.1 µM)
4.13 µM: IC50 (second compound 3.16 µM)
5.7 µM: IC50 (second compound 0.0316 µM)
5.9 µM: IC50 (second compound 0.316 µM)

Cc1[nH]c2ccccc2c1CCNCc1ccc(/C=C/C(=O)NO)cc1 + Cc1[nH]c2ccc(F)cc2c1-c1nc2c3cccnc3c3ncccc3c2[nH]1
inactive: viability, T/C (second compound 0.0316 µM, first compound 0.000999 µM) 87.8% | viability, T/C (second compound 0.0316 µM, first compound 0.00316 µM) 100% | viability, T/C (second compound 0.0316 µM, first compound 0.00999 µM) 105% | viability, T/C [1] 90.3% | viability, T/C (second compound 0.0316 µM, first compound 0.0999 µM) 93% | viability, T/C [3] 96.8% | viability, T/C (second compound 0.1 µM, first compound 0.000999 µM) 97.4% | viability, T/C (second compound 0.1 µM, first compound 0.00316 µM) 98.9% | viability, T/C (second compound 0.1 µM, first compound 0.00999 µM) 79.9% | viability, T/C [7] 89.9% | viability, T/C (second compound 0.1 µM, first compound 0.0999 µM) 74.6% | viability, T/C [9] 70.7% | viability, T/C (second compound 0.316 µM, first compound 0.000999 µM) 102% | viability, T/C (second compound 0.316 µM, first compound 0.00316 µM) 106% | viability, T/C (second compound 0.316 µM, first compound 0.00999 µM) 74.6% | viability, T/C [13] 97.4% | viability, T/C (second compound 0.316 µM, first compound 0.0999 µM) 97.8% | viability, T/C [15] 96.1% | viability, T/C (second compound 1 µM, first compound 0.000999 µM) 116% | viability, T/C (second compound 1 µM, first compound 0.00316 µM) 95.8% | viability, T/C (second compound 1 µM, first compound 0.00999 µM) 93.8% | viability, T/C [19] 101% | viability, T/C (second compound 1 µM, first compound 0.0999 µM) 87.9% | viability, T/C [21] 88.1% | viability, T/C (second compound 3.16 µM, first compound 0.000999 µM) 70.8% | viability, T/C (second compound 3.16 µM, first compound 0.00316 µM) 75.7% | viability, T/C (second compound 3.16 µM, first compound 0.00999 µM) 60.9% | viability, T/C [25] 66.2% | viability, T/C (second compound 3.16 µM, first compound 0.0999 µM) 67.1% | viability, T/C [27] 38.1% | viability, T/C (second compound 10 µM, first compound 0.000999 µM) 32.5% | viability, T/C (second compound 10 µM, first compound 0.00316 µM) 33.9% | viability, T/C (second compound 10 µM, first compound 0.00999 µM) 52.2% | viability, T/C [31] 34.4% | viability, T/C (second compound 10 µM, first compound 0.0999 µM) 22.3% | viability, T/C [33] 25.2%
> 0.316 µM: IC50 (second compound 0.0316 µM) | IC50 (second compound 0.1 µM) | IC50 (second compound 0.316 µM) | IC50 (second compound 1 µM)
< 0.000999 µM: IC50 (second compound 10 µM)
0.196 µM: IC50 (second compound 3.16 µM)

COc1ccc([C@@H](O)c2cc(-c3ncnc4cc(N5CCOCC5)ccc34)c(F)cc2Cl)nn1 + Cc1cnc(CNC(=O)c2c(=O)c3ccc(N4CCCN(C)CC4)nc3n3c2sc2ccccc23)cn1
0.0778 µM: IC50 (second compound 3.16 µM)
> 10 µM: IC50 (second compound 0.0316 µM)
0.328 µM: IC50 (second compound 1 µM)
3.51 µM: IC50 (second compound 0.316 µM)
< 0.0316 µM: IC50 (second compound 10 µM)
8.31 µM: IC50 (second compound 0.1 µM)
inactive: viability, T/C [1] 97% | viability, T/C [2] 82.7% | viability, T/C [3] 118% | viability, T/C [4] 78.1% | viability, T/C [5] 73.6% | viability, T/C [6] 72% | viability, T/C [7] 117% | viability, T/C [8] 113% | viability, T/C [9] 93.8% | viability, T/C [10] 77.3% | viability, T/C [11] 66% | viability, T/C [12] 46.4% | viability, T/C [13] 79.2% | viability, T/C [14] 84.8% | viability, T/C [15] 69.9% | viability, T/C [16] 66.3% | viability, T/C [17] 51.2% | viability, T/C [18] 36.5% | viability, T/C [19] 61.1% | viability, T/C [20] 52% | viability, T/C [21] 55.5% | viability, T/C [22] 42% | viability, T/C [23] 41.3% | viability, T/C [24] 37.3% | viability, T/C [25] 56.3% | viability, T/C [26] 48.2% | viability, T/C [27] 43.3% | viability, T/C [28] 42.9% | viability, T/C [29] 41.5% | viability, T/C [30] 39.2% | viability, T/C [31] 47% | viability, T/C [32] 45.3% | viability, T/C [33] 44.5% | viability, T/C [34] 39.9% | viability, T/C [35] 35.5% | viability, T/C [36] 30.8%
